Legend:
[1] = system: MRSA ATCC 43300; assay: MIC, CO-ADD broth microdilution, MRSA; format: cell-based, methicillin-resistant S. aureus; settings: Staphylococcus aureus; MRSA ATCC 43300; mean (n = 2); read-out: MIC MRSA
Protocol: (§1) The susceptibility of bacterial strains S. aureus (ATCC 25923), E. coli (ATCC 25922), and P. aeruginosa (ATCC 27853 or PAO1) to antibiotics and compounds was determined using reported protocols. Additional antimicrobial evaluation against MRSA (ATCC 43300), Klebsiella pneumoniae (ATCC 700603), A. baumannii (ATCC 19606), Candida albicans (ATCC 90028), and Cryptococcus neoformans (ATCC 208821) was undertaken at the Community for Open Antimicrobial Drug Discovery at The University of Queensland (Australia) according to their standard protocols as reported previously. […]
(§2) 2.3. Antimicrobial Assays
(§3) The susceptibility of bacterial strains S. aureus (ATCC 25923), E. coli (ATCC 25922), and P. […]
(§4) baumannii (ATCC 19606), Candida albicans (ATCC 90028), and Cryptococcus neoformans (ATCC 208821) was undertaken at the Community for Open Antimicrobial Drug Discovery at The University of Queensland (Australia) according to their standard protocols as reported previously. For antimicrobial assays, the tested strains were cultured in either Luria broth (LB) (In Vitro Technologies, USB75852), nutrient broth (NB) (Becton Dickson, 234000), or MHB at 37 °C overnight. A sample of culture was then diluted 40-fold in fresh MHB and incubated at 37 °C for 1.5−2 h. The compounds were serially diluted 2-fold across the wells of 96-well plates (Corning 3641, non-binding surface), with compound concentrations ranging from 0.015 to 64 µg/ mL, and plated in duplicate. The resultant mid-log phase cultures were diluted to the final concentration of 1 × 10^6 CFU/mL; then, 50 µL was added to each well of the compound-containing plates, giving a final compound concentration range of 0.008 to 32 µg/mL and a cell density of 5 × 10^5 CFU/mL. All plates were then covered and incubated at 37 °C for 18 h. Resazurin was added at 0.001% final concentration to each well and incubated for 2 h before MICs […]
(§5) For C. neoformans, resazurin was added at 0.006% final concentration to each well and incubated for a further 3 h before MICs were determined by measuring […]
(§6) Colistin and vancomycin were used as positive bacterial inhibitor standards for Gram-negative and Gram-positive bacteria, respectively. Fluconazole was used as a positive fungal inhibitor standard for C. albicans and C. neoformans. The antibiotics were provided in […], with 3 above and 3 below its MIC value, and plated into the first 8 wells of column 23 of the 384-well NBS plates. The quality control (QC) of the assays was determined by the antimicrobial controls and the Z'-factor (using positive and negative controls). Each plate was deemed to fulfil the quality criteria (pass QC) if the Z'- […]
(§7) inhibition at their highest concentration, and no growth inhibition at their lowest concentration.
(§8) 2.4. Determination of the MICs of Antibiotics in the Presence of Synergizing Compounds

[2] = system: K. pneumoniae ATCC 700603; assay: MIC, CO-ADD broth microdilution, K. pneumoniae; format: cell-based, Klebsiella pneumoniae; settings: for MIC: Klebsiella pneumoniae, ATCC700603, mean (n = 2)
Protocol: as §1, §2, §3, §4, §5, §6, §7, §8

[3] = system: A. baumannii ATCC 19606; assay: MIC, CO-ADD broth microdilution, A. baumannii; format: cell-based; settings: for MIC: Acinetobacter baumannii, ATCC19606, mean (n = 2)
Protocol: as §1, §2, §3, §4, §5, §6, §7, §8

[4] = system: C. albicans ATCC 90028; assay: MIC, CO-ADD antifungal assay, C. albicans; format: cell-based, Candida albicans; settings: for MIC: Candida albicans, ATCC90028, mean (n = 2)
Protocol: as §1, §2, §3
baumannii (ATCC 19606), Candida albicans (ATCC 90028), and Cryptococcus neoformans (ATCC 208821) was undertaken at the Community for Open Antimicrobial Drug Discovery at The University of Queensland (Australia) according to their standard protocols as reported previously. […]
For the antifungal assay, fungi strains were cultured for 3 days on YPD agar at 30 °C. A yeast suspension of 1 × 106 to 5 × 10^6 CFU/mL was prepared from five colonies. These stock suspensions were diluted with yeast nitrogen base (YNB) (Becton Dickinson, 233520) broth to a final concentration of 2.5 × 10^3 CFU/mL. The compounds were serially diluted 2-fold across the wells of 96-well plates (Corning 3641, non-binding surface), with compound concentrations ranging from 0.015 to 64 µg/mL and final volumes of 50 µL, plated in duplicate. Then, 50 µL of the fungi suspension that was previously prepared in YNB broth to the final concentration of 2.5 × 10^3 CFU/mL was added to each well of the compound-containing plates, giving a final compound concentration range of 0.008 to 32 µg/mL. Plates were covered and incubated at 35 °C for 36 h without shaking. C. albicans MICs were determined by measuring the absorbance at OD530. For C. neoformans, resazurin was added at 0.006% final concentration to each well and incubated for a further 3 h before MICs were determined by measuring […]
as §6, §7, §8

[5] = system: human red blood cells; assay: Hemolytic assay; format: cell-based; settings: mean (n = 2)
Protocol: Hemolysis assays were conducted using reported protocols (see Supplementary File). […]
Human whole blood was washed three times with three volumes of 0.9% NaCl and then resuspended in the same solution to a concentration of 0.5 x 10^8 cells/mL, as determined by the manual cell count in a Neubauer hemocytometer. The washed cells were then added to the 384-well compound-containing plates for a final volume of 50 µL. After a 10 min shake on a plate shaker, the plates were then incubated for 1 h at 37 °C. After incubation, the plates were centrifuged at 1,000g for 10 min to pellet cells and debris; 25 µL of the supernatant was then transferred to a polystyrene 384-well assay plate. Hemolysis was determined by measuring the supernatant absorbance at […] (OD405). The absorbance was measured using a Tecan M1000 Pro monochromator plate reader. HC10 and HC50 (concentration at 10% and 50% hemolysis, respectively) were calculated by curve fitting the inhibition values vs. log (concentration) using a sigmoidal dose–response function with variable fitting values for the top, bottom, and slope. […]

Q: For `C=C[C@]1(C)C[C@@H](OC(=O)CSCCN(CC)CC)[C@]2(C)[C@H](C)CC[C@]3(CCC(=O)[C@H]32)[C@@H](C)[C@@H]1O` [Compound 2, Tiamulin, reference compound], which MIC [1] is on record?
A: ≤ 0.51 µM

Q: And the MIC [2]?
A: > 64.8 µM

Q: What about the “MIC K.p.” value ([2]; mean (n = 2)) of the same compound?
A: no activity

Q: And the MIC [3]?
A: > 64.8 µM

Q: What about the “MIC A.b.” value ([3]; mean (n = 2)) of the same compound?
A: no activity

Q: And the MIC [4]?
A: > 64.8 µM

Q: What about the “MIC C.a.” value ([4]; mean (n = 2)) of the same compound?
A: no activity

Q: What about the “Hemolysis (HC10), concentration of compound at 10% hemolytic activity” value (shortened to “Hemolysis (HC10) … at 10% hemolytic activity”) [5] of the same compound?
A: >64.8 µM

Q: `C=C[C@]1(C)C[C@@H](OC(=O)CNCCCNCCCCNCCCNCC(=O)O[C@@H]2C[C@@](C)(C=C)[C@@H](O)[C@H](C)[C@]34CCC(=O)[C@H]3[C@@]2(C)[C@H](C)CC4)[C@]2(C)[C@H](C)CC[C@]3(CCC(=O)[C@H]32)[C@@H](C)[C@@H]1O.O=C(O)C(F)(F)F.O=C(O)C(F)(F)F.O=C(O)C(F)(F)F.O=C(O)C(F)(F)F` [Compound 9a, N^1,N^1′-(Butane-1,4-diyl)bis(N^3-(2-(((3aR,4R,5R,7S,8S,9R,9aS,12R)-8-hydroxy-4,7,9,12-tetramethyl-3-oxo-7-vinyldecahydro-4,9a-propanocyclopenta [8]annulen-5-yl)oxy)-2-oxoethyl)propane-1,3-diaminium) 2,2,2-trifluoroacetate] was tested. Which MIC [1] did it give?
A: 23.2 µM

Q: And the MIC [2]?
A: > 23.2 µM

Q: And the MIC [3]?
A: > 23.2 µM

Q: And the MIC [4]?
A: > 23.2 µM

Q: What about the “Hemolysis (HC10) … at 10% hemolytic activity” value [5] of the same compound?
A: >23.2 µM

Q: Which MIC [1] does the source give for `C=C[C@]1(C)C[C@@H](OC(=O)CNCCCNCCCCCCNCCCNCC(=O)O[C@@H]2C[C@@](C)(C=C)[C@@H](O)[C@H](C)[C@]34CCC(=O)[C@H]3[C@@]2(C)[C@H](C)CC4)[C@]2(C)[C@H](C)CC[C@]3(CCC(=O)[C@H]32)[C@@H](C)[C@@H]1O.O=C(O)C(F)(F)F.O=C(O)C(F)(F)F.O=C(O)C(F)(F)F.O=C(O)C(F)(F)F` [Compound 9b, N^1,N^1′-(Hexane-1,6-diyl)bis(N^3-(2-(((3aR,4R,5R,7S,8S,9R,9aS,12R)-8-hydroxy-4,7,9,12-tetramethyl-3-oxo-7-vinyldecahydro-4,9a-propanocyclopenta [8]annulen-5-yl)oxy)-2-oxoethyl)propane-1,3-diaminium) 2,2,2-trifluoroacetate] here?
A: ≤ 0.18 µM

Q: What about the MIC [2] of the same compound?
A: > 22.7 µM

Q: What about the MIC [3] of the same compound?
A: > 22.7 µM

Q: What about the MIC [4] of the same compound?
A: > 22.7 µM

Q: What about the “Hemolysis (HC10) … at 10% hemolytic activity” value [5] of the same compound?
A: >22.7 µM

Q: With `C=C[C@]1(C)C[C@@H](OC(=O)CNCCCNCCCCCCCNCCCNCC(=O)O[C@@H]2C[C@@](C)(C=C)[C@@H](O)[C@H](C)[C@]34CCC(=O)[C@H]3[C@@]2(C)[C@H](C)CC4)[C@]2(C)[C@H](C)CC[C@]3(CCC(=O)[C@H]32)[C@@H](C)[C@@H]1O.O=C(O)C(F)(F)F.O=C(O)C(F)(F)F.O=C(O)C(F)(F)F.O=C(O)C(F)(F)F` [Compound 9c, N^1,N^1′-(Heptane-1,7-diyl)bis(N^3-(2-(((3aR,4R,5R,7S,8S,9R,9aS,12R)-8-hydroxy-4,7,9,12-tetramethyl-3-oxo-7-vinyldecahydro-4,9a-propanocyclopenta [8]annulen-5-yl)oxy)-2-oxoethyl)propane-1,3-diaminium) 2,2,2-trifluoroacetate] as the compound, how does the MIC [1] read?
A: ≤ 0.18 µM

Q: What about the MIC [2] of the same compound?
A: > 22.5 µM

Q: And the MIC [3]?
A: > 22.5 µM

Q: What about the MIC [4] of the same compound?
A: > 22.5 µM

Q: And the “Hemolysis (HC10) … at 10% hemolytic activity” value [5]?
A: >22.5 µM

Q: How did the MIC [1] turn out when `C=C[C@]1(C)C[C@@H](OC(=O)CNCCCNCCCCCCCCNCCCNCC(=O)O[C@@H]2C[C@@](C)(C=C)[C@@H](O)[C@H](C)[C@]34CCC(=O)[C@H]3[C@@]2(C)[C@H](C)CC4)[C@]2(C)[C@H](C)CC[C@]3(CCC(=O)[C@H]32)[C@@H](C)[C@@H]1O.O=C(O)C(F)(F)F.O=C(O)C(F)(F)F.O=C(O)C(F)(F)F.O=C(O)C(F)(F)F` [Compound 9d, N^1,N^1′-(Octane-1,8-diyl)bis(N^3-(2-(((3aR,4R,5R,7S,8S,9R,9aS,12R)-8-hydroxy-4,7,9,12-tetramethyl-3-oxo-7-vinyldecahydro-4,9a-propanocyclopenta [8]annulen-5-yl)oxy)-2-oxoethyl)propane-1,3-diaminium) 2,2,2-trifluoroacetate] was run?
A: 5.57 µM

Q: And the MIC [2]?
A: > 22.3 µM

Q: And the MIC [3]?
A: > 22.3 µM

Q: What about the MIC [4] of the same compound?
A: > 22.3 µM

Q: What about the “Hemolysis (HC10) … at 10% hemolytic activity” value [5] of the same compound?
A: >22.3 µM

Q: With `C=C[C@]1(C)C[C@@H](OC(=O)CNCCCNCCCCCCCCCCNCCCNCC(=O)O[C@@H]2C[C@@](C)(C=C)[C@@H](O)[C@H](C)[C@]34CCC(=O)[C@H]3[C@@]2(C)[C@H](C)CC4)[C@]2(C)[C@H](C)CC[C@]3(CCC(=O)[C@H]32)[C@@H](C)[C@@H]1O.O=C(O)C(F)(F)F.O=C(O)C(F)(F)F.O=C(O)C(F)(F)F.O=C(O)C(F)(F)F` [Compound 9e, N^1,N^1′-(Decane-1,10-diyl)bis(N^3-(2-(((3aR,4R,5R,7S,8S,9R,9aS,12R)-8-hydroxy-4,7,9,12-tetramethyl-3-oxo-7-vinyldecahydro-4,9a-propanocyclopenta [8]annulen-5-yl)oxy)-2-oxoethyl)propane-1,3-diaminium) 2,2,2-trifluoroacetate] as the compound, how does the MIC [1] read?
A: ≤ 0.17 µM

Q: What about the MIC [2] of the same compound?
A: > 21.9 µM

Q: What about the MIC [3] of the same compound?
A: > 21.9 µM

Q: And the MIC [4]?
A: 10.9 µM

Q: What about the “Hemolysis (HC10) … at 10% hemolytic activity” value [5] of the same compound?
A: >21.9 µM

Q: With `C=C[C@]1(C)C[C@@H](OC(=O)CNCCCNCCCCCCCCCCCCNCCCNCC(=O)O[C@@H]2C[C@@](C)(C=C)[C@@H](O)[C@H](C)[C@]34CCC(=O)[C@H]3[C@@]2(C)[C@H](C)CC4)[C@]2(C)[C@H](C)CC[C@]3(CCC(=O)[C@H]32)[C@@H](C)[C@@H]1O.O=C(O)C(F)(F)F.O=C(O)C(F)(F)F.O=C(O)C(F)(F)F.O=C(O)C(F)(F)F` [Compound 9f, N^1,N^1′-(Dodecane-1,12-diyl)bis(N^3-(2-(((3aR,4R,5R,7S,8S,9R,9aS,12R)-8-hydroxy-4,7,9,12-tetramethyl-3-oxo-7-vinyldecahydro-4,9a-propanocyclopenta [8]annulen-5-yl)oxy)-2-oxoethyl)propane-1,3-diaminium) 2,2,2-trifluoroacetate] as the compound, how does the MIC [1] read?
A: ≤ 0.17 µM

Q: What about the MIC [2] of the same compound?
A: 21.5 µM

Q: And the MIC [3]?
A: 2.7 µM

Q: What about the MIC [4] of the same compound?
A: 21.5 µM

Q: And the “Hemolysis (HC10) … at 10% hemolytic activity” value [5]?
A: 13.2 µM
